Results as given in article PMC5660723, “Histone Deacetylase Inhibitors Are Protective in Acute but Not in Chronic Models of Ototoxicity” (Frontiers in Cellular Neuroscience, 2017).

Assays:
[1] = tested on: outer hair cells (OHCs) of p3 murine organ of Corti explants; assay: Toxicity of HDAC inhibitors in murine cochlear explants (OHC loss by hair cell counts); assay type: cell-based, CBA/J mice; conditions: for loss of OHCs: 72 h; for concentration at which changes in orientation of stereociliary bundles of basal-turn OHCs begin / TD50 (median toxic dose, concentration leading to 50% OHC loss): 72 h incubation; for TD50 (median toxic dose, concentration leading to 50% OHC loss): p3 murine explants
From the text: (§1) The culture procedures have been described in detail (Chen et al., [2009]). In brief, postnatal day 3 (p3) CBA/J pups were euthanized after antisepsis using 70% ethanol. Inner ears were extracted from surrounding tissue and immersed in cold Hank’s balanced salt solution. The lateral wall tissues (stria vascularis and spiral ligament) and the auditory nerve bundle were micro-dissected from the organ of Corti. The explants were placed onto a prepared culture dish containing a 15-μL polymerized drop of rat tail collagen in 1 mL of culture medium consisting of Basal Medium Eagle, 1% serum-free supplement (Invitrogen, Carlsbad, CA, USA), 1% bovine serum albumin, 5 mg/mL glucose, and 10 U/mL penicillin G. After 4 h of incubation (37°C, 5% CO2), an additional 1 mL of medium was added to submerge the explants.
(§2) The medium was then exchanged for new medium containing a final concentration of 4.5 μM GM with or without various concentrations of the HDAC inhibitors and incubated for 72 h. The stock solutions with 95 mM of SAHA/vorinostat (Cayman Chemical, Ann Arbor, MI, USA), 100 mM of belinostat (Selleckchem, Houson, TX, USA), and 100 mM of panobinostat (Cayman Chemical), were dissolved in 100% dimethyl sulfoxide (DMSO) and stored at −20°C. GM solution was made fresh from powder in culture medium at 0.2 mM and then diluted to the final concentration for each experiment.
(§3) Explants were fixed with 4% paraformaldehyde overnight at 4°C and permeabilized for 30 min with 3% Triton X-100 in phosphate-buffered saline (PBS) at room temperature (22–24°C). The specimens were then washed three times with PBS and incubated with rhodamine-phalloidin (Invitrogen) at a 1:100 dilution for 60 min at room temperature (22–24°C). After rinsing in PBS, the specimens were mounted on a slide with Gel-Mount™ (BioMeda Corp., Foster City, CA, USA). The phalloidin-stained stereociliary bundles and circumferential F-actin rings on the cuticular plate of OHCs allowed the determination of cells that were present or missing. A clear “V” shape of stereocilia indicates the presence of OHCs. If the “V” shape is not visualized, we accept this as a damaged hair cells. Cell populations were assessed on a Leitz Orthoplan upright microscope equipped for epifluorescence, using a 50× oil-immersion objective. […] Each successive 0.19-mm field was evaluated for the absence of OHCs beginning from the apex and moving down the organ of Corti to the base. The percentage of OHC loss was calculated.
In order to evaluate the protective potential of the three HDAC inhibitors on aminoglycoside-induced ototoxicity, we first determined their safety on auditory sensory hair cells using p3 murine organ of Corti explants. Explants were incubated for 2 days for recovery from the stress of dissection, followed by 72 h of incubation with or without inhibitors. Toxic effects were assessed by OHC loss. […] OHCs in the basal turn show changes in the orientation of the stereociliary bundles beginning with concentrations of 4 μM for SAHA, 3 μM for belinostat, and 20 nM for panobinostat.

[2] = tested on: outer hair cells (OHCs) of p3 murine organ of Corti explants; assay: Protection against gentamicin-induced OHC loss in murine organ of Corti explants; assay type: cell-based, CBA/J mice; conditions: for concentration at which protection from GM-induced OHC loss begins / concentration that completely prevents GM-induced OHC loss / ED50 (median effective protective dose): 4.5 μM GM; for ED50 (median effective protective dose): 72 h co-incubation, p3 murine explants
From the text: as §1, §2, §3
After having established the safe concentration range for the HDAC inhibitors, we explored their efficacy as protective agents against GM-induced OHC loss. […] From the assessment of safe doses and the median effective (protective) doses (ED50) of the three HDAC inhibitors, we calculated the therapeutic index (TI = TD50/ED50) to be highest (safest) for belinostat and lowest for panobinostat (for detailed values see Table 2).

CBA/J mice = assay: Kanamycin-induced hearing loss in CBA/J mice in vivo (ABR threshold shifts), chronic model; conditions: for auditory threshold shift (ABR), average: KM 700 mg base/kg SQ twice daily for 15 days
Description: Male CBA/J mice at the age of 5 weeks received subcutaneous (SQ) injections of KM at 700 mg base/kg (dissolved in saline) twice per day (AM and PM). SAHA for administration was dissolved in 100% DMSO for stock solutions of 50 mg/mL and diluted with saline immediately before intraperitoneal (IP) injection, for a final dose of 50 mg/kg, given twice per day for 15 days. The concentration of DMSO vehicle control was 1 mL/kg body weight. All solutions were filtered with a syringe filter before injection. Body weight was measured before each injection.
ABRs were measured 3 days before and 3 weeks after drug treatments. Animals were anesthetized with IP injections of ketamine (100 mg/kg) and xylazine (10 mg/kg) for mice or ketamine (58.8 mg/kg), xylazine (2.4 mg/kg), and acepromazine (1.2 mg/kg) for guinea pigs. Body temperature was maintained near 37°C with a heating pad. ABRs were measured at 12 and 32 kHz for guinea pigs or 8, 16, and 32 kHz for mice in a sound-isolated and electrically shielded booth (Acoustic Systems, Austin, TX, USA). Sub-dermal electrodes were inserted at the vertex of the skull, under the left ear and under the right ear (ground). Tucker Davis Technology System III hardware and SigGen/Biosig software were used to present the stimuli monaurally (15 ms duration tone bursts with 1 ms rise-fall time) through a Beyer earphone attached to a customized plastic speculum inserted into the ear canal. Up to 1024 responses were averaged for each stimulus level. Thresholds (the lowest stimulus level with a reproducible response) were determined by reducing the intensity in 10-dB steps and then in 5-dB steps approaching the threshold until no organized response was detected. Thresholds were evaluated based on ABR wave I. Scores were given by an expert blinded to experimental conditions between the highest stimulus level without a response and the lowest stimulus level where an organized response was observed. All ABR measurements were conducted by the same experimenter. […]

[3] = tested on: hair cells in organotypic cultures of the cochlea; parameters: method as in Chen et al., 2009; conditions: ref Chen et al., 2009; cited from earlier work
[4] = Guinea pig tolerability, serum platelet, BUN and creatinine levels; assay type: in vivo, guinea pigs; conditions: for BUN / Cr: in mg/dL (unit assumed)
Description: Pigmented male guinea pigs initially weighing 200–250 g from Charles River were used in the in-vivo study. Experiments were begun 1 week after the guinea pigs arrived. To select safe doses of SAHA for protective studies, we conducted two separate sets of experiments to assess serum platelet concentrations. In the first set, pigmented guinea pigs received daily IP injections of SAHA at lower doses (LD; 2 mg/kg and 5 mg/kg) concurrent with SQ injections of 120 mg GM base/kg body weight daily for 2 weeks. In the second study, the higher doses (HD) of SAHA (15 mg/kg and 25 mg/kg) were used. The DMSO concentration was 1.1 g/kg, equal to the DMSO concentration used for the 25 mg/kg concentration of SAHA. […] We then tested the protective ability of SAHA at LD (2 mg/kg and 5 mg/kg) and at HD of SAHA (15 mg/kg and 25 mg/kg) against GM-induced hearing loss concurrent with daily SQ injections of GM (dissolved in saline) at 120 mg base/kg for 14 days. SAHA was dissolved in 100% DMSO for stock solutions of 25 mg/mL and diluted with saline immediately before IP injections. All compound solutions were filtered with syringe filters before injection. Body weights were measured before each injection. If a guinea pig lost ~5% of its body weight, an additional 3–4 mL of saline was administrated subcutaneously.
Blood was obtained by nail clipping after light anesthesia of the guinea pigs by metofane inhalation after the last drug injections. Blood cells were separated by centrifugation at 1000× g for 15 min, and sera were stored at −20°C. Blood urea nitrogen (BUN), creatinine and platelet concentrations were determined using a Kodak Ektachem700XR Clinical Chemistry Analyzer (Clinical Products Division, Eastman Kodak, Rochester, NY, USA) and analyzed by Dr. Donald Giacherio, Chemical Pathology Laboratory, University of Michigan.
While the CBA/J mouse is a well-established model for chronic KM-induced ototoxicity, we wished to ascertain whether the lack of protection by SAHA might be species-dependent. We therefore tested if SAHA treatment had protective effects against GM-induced hearing loss in guinea pigs. To find safe doses to be used in guinea pigs in vivo, we first assessed serum platelet concentrations. Guinea pigs tolerated injections of SAHA at all concentrations of 5–25 mg/kg body weight concurrent with SQ injections of 120 mg GM base/kg body weight daily for 2 weeks with normal appearing fur and steadily increasing body weight. Blood samples were collected after the last injection.

pigmented guinea pigs = assay: Gentamicin-induced ototoxicity in guinea pigs in vivo (ABR threshold shifts, OHC counts), chronic model; conditions: for effect on GM-induced auditory threshold shifts: SAHA IP LD 2–5 mg/kg or HD 15–25 mg/kg with GM 120 mg base/kg daily for 2 weeks
Description: Pigmented male guinea pigs initially weighing 200–250 g from Charles River were used in the in-vivo study. Experiments were begun 1 week after the guinea pigs arrived. To select safe doses of SAHA for protective studies, we conducted two separate sets of experiments to assess serum platelet concentrations. […] In the second study, the higher doses (HD) of SAHA (15 mg/kg and 25 mg/kg) were used. The DMSO concentration was 1.1 g/kg, equal to the DMSO concentration used for the 25 mg/kg concentration of SAHA. […] SAHA was dissolved in 100% DMSO for stock solutions of 25 mg/mL and diluted with saline immediately before IP injections. All compound solutions were filtered with syringe filters before injection. Body weights were measured before each injection. If a guinea pig lost ~5% of its body weight, an additional 3–4 mL of saline was administrated subcutaneously.
The procedures for surface preparations of guinea pig cochlear epithelia were followed as previously described (Sha and Schacht, [1999b]). After the last auditory brain stem response (ABR) measurement, guinea pigs from the second group of experiments were deeply anesthetized in a CO2 chamber and decapitated. Cochleae were immediately removed and perfused with 4% paraformaldehyde in PBS at pH 7.4 and fixed overnight at 4°C. Micro-dissected surface preparations of the organ of Corti were permeabilized for 30 min with 0.5% Triton X-100 in PBS at room temperature (22–24°C) and stained with rhodamine phalloidin (Invitrogen) at a 1:100 dilution for 60 min at room temperature (22–24°C). After rinsing in PBS, the specimens were mounted on a slide with Gel-Mount™ (BioMeda Corp.). OHC counts were conducted with microscopy as described above for mice.
ABRs were measured 3 days before and 3 weeks after drug treatments. Animals were anesthetized with IP injections of ketamine (100 mg/kg) and xylazine (10 mg/kg) for mice or ketamine (58.8 mg/kg), xylazine (2.4 mg/kg), and acepromazine (1.2 mg/kg) for guinea pigs. Body temperature was maintained near 37°C with a heating pad. ABRs were measured at 12 and 32 kHz for guinea pigs or 8, 16, and 32 kHz for mice in a sound-isolated and electrically shielded booth (Acoustic Systems, Austin, TX, USA). Sub-dermal electrodes were inserted at the vertex of the skull, under the left ear and under the right ear (ground). […] Thresholds (the lowest stimulus level with a reproducible response) were determined by reducing the intensity in 10-dB steps and then in 5-dB steps approaching the threshold until no organized response was detected. Thresholds were evaluated based on ABR wave I. Scores were given by an expert blinded to experimental conditions between the highest stimulus level without a response and the lowest stimulus level where an organized response was observed. […]

guinea pigs = tested on: guinea pigs; parameters: method as in Wang et al., 2015; conditions: locally applied to the middle ear; ref Wang et al., 2015; cited from earlier work
mice [5] = conditions: systemic SAHA, cited from earlier work
mice [6] = tested on: mice; parameters: method as in Layman et al., 2015; conditions: 100 mg/kg/day for 2 weeks, ref Layman et al., 2015; cited from earlier work
[7] = cited from earlier work
[8] = GM + SAHA (HD: 15–25 mg/kg), n=5
[9] = SAHA alone (LD + HD; LD 2–5 mg/kg, HD 15–25 mg/kg), n=2

For Cc1[nH]c2ccccc2c1CCNCc1ccc(/C=C/C(=O)NO)cc1 [panobinostat], the “loss of OHCs” value ([1]; 50 nM) was 100%, the “concentration at which changes in orientation of stereociliary bundles of basal-turn OHCs begin” value (from here on “concentration at which changes”) [1] was 20 nM and the “TD50 (median toxic dose, concentration leading to 50% OHC loss)” value [1] was 0.035 µM. For the same compound, the “concentration at which protection from GM-induced OHC loss begins” value ([2]; 72 h) was 0.005 µM, the “concentration that completely prevents GM-induced OHC loss” value ([2]; 72 h) was 0.015 µM and the “ED50 (median effective protective dose)” value [2] was 9 nM.
For NC[C@H]1O[C@H](O[C@H]2[C@H](O)[C@@H](O[C@H]3O[C@H](CO)[C@@H](O)[C@H](N)[C@H]3O)[C@H](N)C[C@@H]2N)[C@H](O)[C@@H](O)[C@@H]1O [KM, kanamycin], the “auditory threshold shift (ABR), average” value (CBA/J mice; 16 kHz) was 55 dB and the “auditory threshold shift (ABR), average” value (CBA/J mice; 32 kHz) was 55 dB.
For CC(/C=C/C(=O)NO)=C\[C@@H](C)C(=O)c1ccc(N(C)C)cc1 [trichostatin A], the “effect on hair cells under GM-induced damage” value [3] is listed as “rescued hair cells”.
In the case of CNC(C)C1CCC(N)C(OC2C(N)CC(N)C(OC3OCC(C)(O)C(NC)C3O)C2O)O1 (centres unmarked) [GM, gentamicin], the “overall loss of OHCs” value ([2]; GM 4.5 μM with vehicle (DMSO) alone, 72 h, base-to-apex gradient) is reported as 40%, the BUN ([4]; GM + DMSO, n=4) is reported as 16 ± 4.5 and the Cr ([4]; GM + DMSO, n=4) is reported as 0.5 ± 0.22. For the same compound, the “OHC loss in the basal turn” value (pigmented guinea pigs; GM 120 mg base/kg SQ daily for 2 weeks) was “significant OHC loss”.
For CCCC(=O)O [butyrate, sodium butyrate], the “effect on hair cells under GM-induced damage” value [3] is given as “rescued hair cells” and the “protection of guinea pigs in vivo” value (guinea pigs) is given as “protected”.
In the case of O=C(/C=C/c1cccc(S(=O)(=O)Nc2ccccc2)c1)NO [belinostat], the “loss of OHCs” value ([1]; 5 μM) is reported as 100%, the “concentration at which changes” value [1] is reported as 3000 nM and the “TD50 (median toxic dose, concentration leading to 50% OHC loss)” value [1] is reported as 3.5 µM. For the same compound, the “concentration at which protection from GM-induced OHC loss begins” value ([2]; 72 h) was 0.1 µM, the “concentration that completely prevents GM-induced OHC loss” value ([2]; 72 h) was 0.4 µM and the “ED50 (median effective protective dose)” value [2] was 50 nM.
With O=C(CCCCCCC(=O)Nc1ccccc1)NO [SAHA, vorinostat] the “loss of OHCs” value ([1]; 8 μM) was 100%, the “concentration at which changes” value [1] was 4000 nM and the “TD50 (median toxic dose, concentration leading to 50% OHC loss)” value [1] was 5.5 µM. The “concentration at which protection from GM-induced OHC loss begins” value ([2]; 72 h) was 0.5 µM, the “concentration that completely prevents GM-induced OHC loss” value ([2]; 72 h) was 2 µM and the “ED50 (median effective protective dose)” value [2] was 600 nM. The “effect on KM-induced auditory threshold shifts” value (CBA/J mice; SAHA 50 mg/kg IP twice daily for 15 days with KM 700 mg base/kg twice daily) was “did not attenuate”, the BUN [4, 8] was 17 ± 3.2 and the Cr [4, 8] was 0.4 ± 0.08. The BUN ([4]; GM + SAHA (LD: 2–5 mg/kg), n=6) was 17 ± 1.7, the Cr ([4]; GM + SAHA (LD: 2–5 mg/kg), n=6) was 0.4 ± 0.06 and the “platelet concentration compared to GM alone” value ([4]; SAHA 25 mg/kg IP daily with 120 mg GM base/kg SQ for 2 weeks) was “significantly lower”. For the same compound, the “tolerability (fur appearance, body weight)” value ([4]; SAHA 5–25 mg/kg with 120 mg GM base/kg SQ daily for 2 weeks) was “tolerated”, the BUN [4, 9] was 17.5 ± 0.7 and the Cr [4, 9] was 0.5 ± 0.007. For the same compound, the “effect on GM-induced auditory threshold shifts” value (pigmented guinea pigs; 12 kHz) was “did not attenuate”, the “effect on GM-induced auditory threshold shifts” value (pigmented guinea pigs; 32 kHz) was “did not attenuate” and the “effect on GM-induced loss of OHCs” value (pigmented guinea pigs; SAHA IP with GM 120 mg base/kg daily for 2 weeks) was “did not attenuate”. The “effect on trauma of exposure to excessive noise” value (mice [5]; ref Chen et al., 2016) was “attenuated”, the “effect on acute effects of the ototoxic combination of KM and furosemide” value (mice [5]; ref Layman et al., 2015) was “attenuated” and the ototoxicity (mice [6]) was “no ototoxicity”. For the same compound, the blood-brain barrier penetration ([7]; mouse model of Huntington’s disease, ref Hockly et al., 2003) was “crosses the blood-brain barrier” and the “blood-labyrinth barrier / inner ear penetration” value ([7]; mouse, IP injection, ref Layman et al., 2015) was “crosses the blood-labyrinth barrier”.
